This is an account of results in US20030225007A1, “Sulfonamide derivatives of 3-substituted imidazol[1,2-d]-1,2,4-thiadiazoles and 3-substituted-[1,2,4] thiadiazolo[4,5-a] benzimidazole as inhibitors of fibrin cross-linking and transglutaminases” (Apotex Inc., priority 2002, published 2003).

Assay [1] concerns the target T1, Factor XIIIa (activated FXIII) (Homo sapiens, UniProt P00488).
T1 construct: purchased Enzyme Research Laboratories, Ltd
T1 sequence (P00488 39-732 limits assumed): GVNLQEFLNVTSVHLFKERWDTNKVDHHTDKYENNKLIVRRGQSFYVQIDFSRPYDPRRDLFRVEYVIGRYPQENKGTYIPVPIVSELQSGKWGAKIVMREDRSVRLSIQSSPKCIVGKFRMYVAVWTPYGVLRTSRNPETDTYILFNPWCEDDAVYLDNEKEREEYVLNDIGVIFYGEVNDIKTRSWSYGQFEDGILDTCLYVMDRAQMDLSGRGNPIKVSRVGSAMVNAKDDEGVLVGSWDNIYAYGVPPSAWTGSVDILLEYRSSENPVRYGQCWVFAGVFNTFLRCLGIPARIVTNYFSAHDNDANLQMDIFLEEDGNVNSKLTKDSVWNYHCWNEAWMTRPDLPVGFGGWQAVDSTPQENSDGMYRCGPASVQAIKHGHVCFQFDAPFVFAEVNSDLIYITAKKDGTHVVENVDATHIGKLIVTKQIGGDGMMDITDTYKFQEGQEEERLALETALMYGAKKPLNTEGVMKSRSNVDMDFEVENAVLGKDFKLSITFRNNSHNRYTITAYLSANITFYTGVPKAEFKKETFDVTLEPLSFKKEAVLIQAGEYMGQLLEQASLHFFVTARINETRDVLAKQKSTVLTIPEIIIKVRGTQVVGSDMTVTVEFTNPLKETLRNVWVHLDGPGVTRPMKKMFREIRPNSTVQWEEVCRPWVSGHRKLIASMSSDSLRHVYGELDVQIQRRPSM
Description: Inactivation of purified Factor XIIIa (monodansylcadaverine incorporation into dimethylcasein, fluorescence). Type of assay: biochemical. Particulars: for kinact/KI: purified Factor XIIIa, method of Kitz and Wilson, read-out: Second order rate constant for inactivation. The protocol: FXIII (0.5 mg/mL, Enzyme Research Laboratories, Ltd.) in 50 mM Tris-HCl pH 7.5 containing 100 mM NaCl, 40 mM CaCl2, 1 mM EDTA and 0.1% poly(ethylene glycol) (app. MW=8000) was activated by incubation with 10 NIH units/mL of human thrombin (Calbiochem) at 37° C. for 20 min. Thrombin was quenched with 20 NIH units/mL of hirudin from Leech (Sigma).
Inhibitor solution in DMSO (14 μL) was added to 120 μL of 250 mM Tris-Cl pH 7.5 containing 40 mM CaCl2 and 1 mM EDTA and the solution was incubated at 37° C. for two minutes. Activated FXIII (5 μL, 0.5 mg/mL) was added and the mixture was incubated at 37° C. for 5 min.
An assay mixture composed of 50 mM Tris-Cl pH 8.0, 10 mM CaCl2, 1 mM EDTA, 0.1% poly(ethylene glycol) (app. MW=1000) and 20 μM monodansylcadaverine was prepared in a spectrofluorometric cell in a final volume of 2880 μL. Dimethylcasein (8 μL, 1% in 50 mM sodium phosphate pH 7.5) was added and the solution was incubated at 37° C. for a few minutes. To assay the residual enzyme activity, 120 μL of the solution containing the enzyme and the inhibitor was transferred to the assay mixture. The covalent incorporation of monodansylcadaverine into casein was monitored by an increase in fluorescence at λexc=360 nm and λem=500 nm as previously described (Curtis, C. G.; Lorand, L. Methods Enzymol. 1976, 45, 177-191). To determine uninhibited enzyme activity, DMSO was used in place of inhibitor solution in the above assay. IC50 were determined by plotting the percent of remaining enzyme activity against logarithm of inhibitor concentration. IC50 is defined here as an inhibitor concentration resulting in 50% enzyme inactivation after 5-min incubation of the enzyme with the inhibitor in the absence of the substrate. Second order rate constants for inactivation were determined using method described by Kitz and Wilson (Kitz, R.; Wilson, I. J. Biol. Chem. 1962, 237, 3245).

A further assay deals with T2, Guinea pig liver TGase (Cavia cutleri, UniProt P08587).
T2 construct: Guinea pig liver TGase; from tissue; host or cells: guinea pig liver
T2 sequence (P08587 2-690): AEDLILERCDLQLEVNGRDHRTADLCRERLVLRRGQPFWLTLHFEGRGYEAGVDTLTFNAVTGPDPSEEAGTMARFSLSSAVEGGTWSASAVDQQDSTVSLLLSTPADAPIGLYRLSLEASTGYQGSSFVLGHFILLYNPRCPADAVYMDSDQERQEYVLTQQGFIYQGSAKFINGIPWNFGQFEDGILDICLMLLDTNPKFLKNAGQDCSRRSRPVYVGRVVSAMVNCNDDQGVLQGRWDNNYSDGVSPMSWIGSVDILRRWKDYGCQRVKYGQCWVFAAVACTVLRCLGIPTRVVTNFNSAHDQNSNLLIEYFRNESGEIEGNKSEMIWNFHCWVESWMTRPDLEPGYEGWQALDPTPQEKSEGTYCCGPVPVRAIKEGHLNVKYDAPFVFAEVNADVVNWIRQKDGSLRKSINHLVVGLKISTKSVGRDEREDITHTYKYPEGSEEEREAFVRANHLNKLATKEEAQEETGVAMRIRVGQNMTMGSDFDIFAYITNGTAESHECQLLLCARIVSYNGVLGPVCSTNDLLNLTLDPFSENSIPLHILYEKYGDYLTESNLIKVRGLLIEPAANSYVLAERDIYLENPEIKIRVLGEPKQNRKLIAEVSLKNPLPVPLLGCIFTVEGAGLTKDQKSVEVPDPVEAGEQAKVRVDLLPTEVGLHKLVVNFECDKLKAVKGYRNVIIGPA
Description: Enzyme selectivity: inactivation of tissue type transglutaminase. Type of assay: biochemical. Particulars: 5-min incubation at 37° C. in the absence of substrate. The protocol:
Enzyme selectivity . Inactivation of tissue type transglutaminase: Inhibitor solution in DMSO (5 μL) was added to 250 mM Tris-Cl pH 7.5 containing 40 mM CaCl2 and 1 mM EDTA in a final volume of 42 μL. Guinea pig liver TGase (3 μL, 2.5 mg/mL in 5 mM Tris-HCl pH 7.5, 2 mM EDTA) was added and the mixture was incubated for 5 min. at 37° C.
An assay mixture composed of 50 mM Tris-Cl, pH 8.0, 10 mM CaCl2, 1 mM EDTA, 0.1% poly(ethylene glycol) (app. MW=1000) and 20 μM monodansylcadaverine was prepared in a spectrofluorimetric cell in a final volume of 2952 μL. Dimethylcasein (8 μL, 1% in 50 mM sodium phosphate pH 7.5) was added and the mixture was incubated at 37° C. for a few minutes. To assay the residual enzyme activity, 40 μL of the solution containing the enzyme and the inhibitor was transferred to the assay mixture. The covalent incorporation of monodansylcadaverine into casein was monitored by an increase in fluorescence at λexc=360 nm and λem=500 nm, as previously described ((Curtis, C. G.; Lorand, L. Methods Enzymol. 1976, 45, 177-191). To determine uninhibited enzyme activity, DMSO was used in place of inhibitor solution in the above assay. IC50 values were determined by plotting the percent of remaining enzyme activity against logarithm of inhibitor concentration. IC50 is defined here as inhibitor concentration resulting in 50% enzyme inactivation after 5-min incubation of the enzyme with the inhibitor in the absence of the substrate. Second order rate constants for inactivation were determined using method described by Kitz and Wilson (Kitz, R.; Wilson, I. J.Biol.Chem. 1962,237, 3245).

Where [2] appears, read: TGAse IC50, Guinea pig liver TGase.
[3] abbreviates: purified activated FXIII, 50% enzyme inactivation after 5-min incubation with inhibitor at 37° C. in the absence of substrate, read-out: FXIIIa (IC50 in μM).

“And” between values parts separate entries of the source, which are not always exact repeats. Equal entries are not always repeated. Where two headings read alike, the source gives them in different places.

On to `O=C(N1CCc2ccc(S(=O)(=O)NCCCCCCNc3nsc4nccn34)cc2C1)C(F)(F)F`, for which the 50% inhibitory concentration (IC50) in assay [1] (values without asterisk, purified FXIIIa, 5-min incubation, read-out: FXIIIa IC50 determined by method in Example 16) worked out at 11 µM; on Guinea pig liver TGase (read-out: TGAse IC50, Guinea pig liver TGase), 17 µM.

`O=S(=O)(NCCCCCCNc1nsc2nccn12)c1ccccc1C(F)(F)F` [2-CF3-Ph / H, N-[6-(imidazo[1,2-d][1,2,4]thiadiazol-3-ylamino)hexyl]-2-trifluoromethylbenzenesulfonamide]: the kinact/KI in assay [1] amounted to 12000 M⁻¹ s⁻¹. Also, the IC50 was 0.26 µM and 0.18 µM in assay [1] (values marked *, read-out: FXIIIa IC50, *values calculated from second order rate constant for inactivation); 7.5 µM and 3.8 µM against Guinea pig liver TGase (setting [2]).

For the compound `CN(CCCCCCNS(=O)(=O)c1ccccc1[N+](=O)[O-])c1nsc2nccn12` [2-NO2-Ph / CH3, N-{6-[imidazo[1,2-d][1,2,4]thiadiazol-3-yl(methyl)amino]hexyl}-2-nitrobenzenesulfonamide], the half-inhibitory concentration (IC50) against Guinea pig liver TGase (setting [2]) came out at 6.2 µM.

On to `O=C(O)c1ccc(S(=O)(=O)NCCCCCCNc2nsc3nccn23)cc1` [4-COOH-Ph, 4-carboxy-N-[6-(imidazo[1,2-d][1,2,4]thiadiazol-3-ylamino)hexyl]benzenesulfonamide], for which the IC50 in assay [1] (setting [3]) was 11.4 µM.

Turning to `COc1ccc(S(=O)(=O)NCCCCCCNc2nsc3nccn23)cc1` [4-OMe-Ph, N-[6-(imidazo[1,2-d][1,2,4]thiadiazol-3-ylamino)hexyl]-4-methoxybenzenesulfonamide], the IC50 in assay [1] (setting [3]) is 1.4 µM.

As to `O=S(=O)(NCCCCCCNc1nsc2nccn12)c1ccc(-c2ccccc2)cc1` [4-Ph-Ph, N-[6-(imidazo[1,2-d][1,2,4]thiadiazol-3-ylamino)hexyl]-4-phenylbenzenesulfonamide], the half-maximal inhibitory concentration (IC50) in assay [1] (setting [3]) was found to be 1.3 µM.

Turning to `Cc1ccc(S(=O)(=O)N[C@@H](CCCCNc2nsc3nccn23)C(=O)N2CCN(Cc3ccccc3)CC2)cc1` [4-benzyl-{N^ε-imidazo[1,2-d][1,2,4]thiadiazol-3-yl-N^α-[(4-methylphenyl)sulfonyl]lysyl}piperazine], in assay [1] (setting [3]), the half-inhibitory concentration (IC50) came to 6.5 µM.

Regarding `O=C(O)CCCCCN(CCCCCCNc1nsc2nccn12)S(=O)(=O)c1ccc(F)cc1F` [5 / OH / 2-F-4-F-Ph, 6-{[(2,4-difluorophenyl)sulfonyl][6-(imidazo[1,2-d][1,2,4]thiadiazol-3-ylamino)hexyl]amino}hexanoic acid], the concentration for half-maximal inhibition (IC50) in assay [1] (setting [3]) was determined as 6.8 µM.

With `CN(CCCCCCN(C)S(=O)(=O)c1ccccc1[N+](=O)[O-])c1nsc2nccn12` [CH3 / CH3 / 2-NO2-Ph, N-{6-[imidazo[1,2-d][1,2,4]thiadiazol-3-yl(methyl)amino]hexyl}-N-methyl-2-nitrobenzenesulfonamide], in assay [1] (setting [3]), the IC50 is 0.6 µM.

Take `CN(CCCCCCNc1nsc2nccn12)S(=O)(=O)c1cccc2ccccc12` [CH3 / H / 1-naphthyl, N-[6-(imidazo[1,2-d][1,2,4]thiadiazol-3-ylamino)hexyl]-N-methylnaphthalene-1-sulfonamide]: in assay [1] (setting [3]), the IC50 is 2.4 µM.

Consider `CN(CCCCCCNc1nsc2nccn12)S(=O)(=O)c1ccccc1[N+](=O)[O-]` [CH3 / H / 2-NO2-Ph, N-[6-(Imidazo[1,2-d][1,2,4]thiadiazol-3-ylamino)hexyl]-N-methyl-2-nitro benzene sulfonamide], for which, in assay [1] (setting [3]), the IC50 was 1.3 µM.

`COC(=O)CN(CCCCCCNS(=O)(=O)c1ccccc1[N+](=O)[O-])c1nsc2nccn12` [H / CH2COOMe / 2-NO2-Ph, methyl N-imidazo[1,2-d][1,2,4]thiadiazol-3-yl-N-(6-{[(2-nitrophenyl)sulfonyl]amino}hexyl)glycinate]: in assay [1] (setting [3]), the IC50 worked out at 0.88 µM.

`Cc1ccc(S(=O)(=O)N[C@@H](CCCCNc2nsc3nccn23)C(=O)NCc2ccc(F)cc2)cc1` [N-(4-fluorobenzyl)-N^ε-imidazo[1,2-d][1,2,4]thiadiazol-3-yl-N^α-[(4-methylphenyl)sulfonyl]lysinamide]: the IC50 in assay [1] (setting [3]) amounted to 6.7 µM.

For the compound `O=[N+]([O-])c1ccc(NCCCCCCNc2nsc3nccn23)c([N+](=O)[O-])c1` [N^1-(2,4-dinitrophenyl)-N^6-imidazo[1,2-d][1,2,4]thiadiazol-3-ylhexane-1,6-diamine], the kinact/KI in assay [1] was 8900 M⁻¹ s⁻¹.

Consider `O=S(=O)(NCCCCCCNc1nsc2nccn12)c1cccc2cccnc12` [Quinoline-8-, N-[6-(imidazo[1,2-d][1,2,4]thiadiazol-3-ylamino)hexyl]quinoline-8-sulfonamide], for which the IC50 in assay [1] (setting [3]) was determined as 2.6 µM.

On to `Cc1ccc(S(=O)(=O)NC(CCCCNc2nsc3nccn23)C(N)=O)cc1` (stereo not drawn) [—CH(CONH2)—NH— / 4-Me-Ph], for which the 50% inhibitory concentration (IC50) in assay [1] (setting [3]) came out at 9.1 µM.

On to `Cc1ccc(S(=O)(=O)N[C@@H](CCCCNc2nsc3nccn23)C(=O)O)cc1` [—CH(COOH)—NH— / 4-Me-Ph, N^ε-imidazo[1,2-d][1,2,4]thiadiazol-3-yl-N^α-[(4-methylphenyl)sulfonyl]lysine], for which the IC50 in assay [1] (setting [3]) was found to be 6.7 µM.

With `COC(=O)[C@H](CCCCNc1nsc2nccn12)NS(=O)(=O)c1ccc(C)cc1` [—CH(COOMe)—NH— / 4-Me-Ph, methyl N^ε-imidazo[1,2-d][1,2,4]thiadiazol-3-yl-N^α-[(4-methylphenyl)sulfonyl]lysinate], the concentration for half-maximal inhibition (IC50) in assay [1] (setting [3]) was determined as 7 µM.
